According to patent US20240308977A1, “PYRIDAZINE DERIVATIVES AS INHIBITORS OF NLRP3” (Hoffmann-La Roche Inc., priority 2021, published 2024):

Legend:
Format in all cases: cell-based
[1] = target: T1, NLRP3 (Homo sapiens, UniProt Q96P20); assay: THP-1 cells pyroptosis assay; set-up: Seed THP-1 cells (25,000 cells/well) containing 10 μg/ml LPS; host or cells: THP-1 cells; conditions: LPS primed, nigericin 5 μM, resazurin read-out
Experimental: Therefore, it is anticipated that inhibitors of NLRP3 will block pyroptosis, as well as the release of pro-inflammatory cytokines (e.g. IL-1B) from the cell.
On the day of the experiment, THP-1 cells were harvested and resuspended into RPMI medium (without FBS). The cells were then counted and viability (>90%) checked by Trypan blue (Sigma #T8154). […] To this diluted cell solution was added LPS (Sigma #L4524) to give a 1 μg/ml Final Assay Concentration (FAC). 40 μl of the final preparation was aliquoted into each well of a 96-well plate. The plate thus prepared was used for compound screening.
The following method step-by-step assay was followed for compound screening. • 1. […] Incubate for 3 hours at 37° C., 5% CO2 • 4. Add 5 μl nigericin (Sigma #N7143) (FAC 5 μM) to all wells • 5. Incubate for 1 hr at 37° C., 5% CO2 • 6. At the end of the incubation period, spin plates at 300 xg for 3 mins and remove supernatant • 7. […] IC50 data is fitted to a non-linear regression equation (log inhibitor vs response-variable slope 4-parameters)

[2] = target: T1, NLRP3; assay: Human whole blood IL-1β release assay; set-up: Human whole blood in Li-heparin tubes was obtained from healthy donors; from tissue; host or cells: human whole blood from healthy donors; conditions: LPS 1 μg/ml, nigericin 10 μM, IL-1β by AlphaLisa
Experimental: Human whole blood in Li-heparin tubes was obtained from healthy donors from a volunteer donor panel. • 1. […] Incubate for 3 hours at 37° C., 5% CO2 • 4. Add 10 μl nigericin (Sigma #N7143) (10 μM FAC) to all wells • 5. Incubate for 1 hr at 37° C., 5% CO2 • 6. At the end of the incubation period, spin plates at 300 xg for 5 mins to pellet cells and remove 20 μl of supernatant and add to 96-well v-bottom plates for IL-1β analysis (note: these plates containing the supernatants can be stored at −80° C. to be analysed at a later date) • 7. IL-1β was measured according to the manufacturer protocol (Perkin Elmer-AlphaLisa IL-1 Kit AL220F-5000) • 8. IC50 data is fitted to a non-linear regression equation (log inhibitor vs response-variable slope 4-parameters)

[3] = target: T2, hERG cardiac potassium channel (Homo sapiens, UniProt Q12809); assay: hERG screening assay (automated patch clamp, CHO crelox hERG cells); conditions: whole-cell patch clamp at 35-37° C.
T2 construct: host or cells: CHO crelox hERG cell line (Chinese hamster)
T2 sequence (Q12809 whole entry): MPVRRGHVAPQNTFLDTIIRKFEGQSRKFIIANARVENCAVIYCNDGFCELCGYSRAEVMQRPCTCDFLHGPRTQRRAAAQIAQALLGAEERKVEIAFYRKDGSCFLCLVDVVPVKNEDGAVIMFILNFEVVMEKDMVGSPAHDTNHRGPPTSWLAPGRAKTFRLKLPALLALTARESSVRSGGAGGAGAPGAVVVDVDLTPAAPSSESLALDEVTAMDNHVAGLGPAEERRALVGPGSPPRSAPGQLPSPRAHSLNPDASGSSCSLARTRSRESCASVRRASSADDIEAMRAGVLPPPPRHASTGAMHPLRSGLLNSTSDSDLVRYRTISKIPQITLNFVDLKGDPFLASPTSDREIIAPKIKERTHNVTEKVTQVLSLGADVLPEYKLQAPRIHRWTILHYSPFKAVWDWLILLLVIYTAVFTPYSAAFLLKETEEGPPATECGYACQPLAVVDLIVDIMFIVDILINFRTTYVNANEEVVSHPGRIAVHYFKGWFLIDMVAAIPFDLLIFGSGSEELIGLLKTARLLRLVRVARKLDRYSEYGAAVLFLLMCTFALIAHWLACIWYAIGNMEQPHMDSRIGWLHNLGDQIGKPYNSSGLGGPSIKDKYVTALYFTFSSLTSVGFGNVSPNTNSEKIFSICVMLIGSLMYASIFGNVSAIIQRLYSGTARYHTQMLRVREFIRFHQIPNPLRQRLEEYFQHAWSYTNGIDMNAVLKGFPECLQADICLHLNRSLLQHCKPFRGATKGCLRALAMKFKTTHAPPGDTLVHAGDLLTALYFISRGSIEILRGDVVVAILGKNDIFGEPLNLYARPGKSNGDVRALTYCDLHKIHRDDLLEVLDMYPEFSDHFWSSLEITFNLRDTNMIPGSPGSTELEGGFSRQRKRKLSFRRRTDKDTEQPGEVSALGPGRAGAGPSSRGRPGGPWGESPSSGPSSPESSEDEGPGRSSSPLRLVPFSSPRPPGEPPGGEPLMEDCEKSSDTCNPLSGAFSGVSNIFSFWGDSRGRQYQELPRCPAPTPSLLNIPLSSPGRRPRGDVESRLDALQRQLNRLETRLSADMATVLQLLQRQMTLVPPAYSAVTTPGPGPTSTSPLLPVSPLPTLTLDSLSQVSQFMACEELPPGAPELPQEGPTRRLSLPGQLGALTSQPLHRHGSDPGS
Experimental: Ready-to-use frozen instant CHO-hERG cells were cryopreserved at Evotec (Germany) and used directly in the experiments.
The internal solution contains (in mM): KCl, 10; KF, 100; NaCl, 10; HEPES, 10; EGTA, 20; pH=7.0-7.4 with KOH, osmolarity 260-300 mOsm.
The effects of a compound on hERG K+-currents parameters will be evaluated at 2 concentrations in at least 4 cells.
K+ currents are measured with the patch-voltage-clamp technique in the whole-cell configuration at 35-37° C.
The amplitudes of IKhERG were recorded in each concentration of drug and they were compared to the vehicle control values (taken as 100%) to define fractional blocks. The concentration-response data were fitted with the following relationship:
Concentration-response curves were fitted by non-linear regression analysis using EworkBook suite (ID Business Solutions Ltd, UK). Data fit was done with the 4 Parameter Logistic Model (fit=(A+(B/(1+((x/C)^D)))), where A=0 and B=100).
In the drug development process of small molecules, one of the most frequent adverse side effects, leading to the failure of drugs, is the cardiac arrhythmias. Such failure is often related to the capacity of the drug to inhibit the human ether-à-go-go-related gene (hERG) cardiac potassium channel. Having no or low inhibition of the hERG cardiac potassium channel is therefore considered as beneficial.

T1 sequence (Q96P20 whole entry): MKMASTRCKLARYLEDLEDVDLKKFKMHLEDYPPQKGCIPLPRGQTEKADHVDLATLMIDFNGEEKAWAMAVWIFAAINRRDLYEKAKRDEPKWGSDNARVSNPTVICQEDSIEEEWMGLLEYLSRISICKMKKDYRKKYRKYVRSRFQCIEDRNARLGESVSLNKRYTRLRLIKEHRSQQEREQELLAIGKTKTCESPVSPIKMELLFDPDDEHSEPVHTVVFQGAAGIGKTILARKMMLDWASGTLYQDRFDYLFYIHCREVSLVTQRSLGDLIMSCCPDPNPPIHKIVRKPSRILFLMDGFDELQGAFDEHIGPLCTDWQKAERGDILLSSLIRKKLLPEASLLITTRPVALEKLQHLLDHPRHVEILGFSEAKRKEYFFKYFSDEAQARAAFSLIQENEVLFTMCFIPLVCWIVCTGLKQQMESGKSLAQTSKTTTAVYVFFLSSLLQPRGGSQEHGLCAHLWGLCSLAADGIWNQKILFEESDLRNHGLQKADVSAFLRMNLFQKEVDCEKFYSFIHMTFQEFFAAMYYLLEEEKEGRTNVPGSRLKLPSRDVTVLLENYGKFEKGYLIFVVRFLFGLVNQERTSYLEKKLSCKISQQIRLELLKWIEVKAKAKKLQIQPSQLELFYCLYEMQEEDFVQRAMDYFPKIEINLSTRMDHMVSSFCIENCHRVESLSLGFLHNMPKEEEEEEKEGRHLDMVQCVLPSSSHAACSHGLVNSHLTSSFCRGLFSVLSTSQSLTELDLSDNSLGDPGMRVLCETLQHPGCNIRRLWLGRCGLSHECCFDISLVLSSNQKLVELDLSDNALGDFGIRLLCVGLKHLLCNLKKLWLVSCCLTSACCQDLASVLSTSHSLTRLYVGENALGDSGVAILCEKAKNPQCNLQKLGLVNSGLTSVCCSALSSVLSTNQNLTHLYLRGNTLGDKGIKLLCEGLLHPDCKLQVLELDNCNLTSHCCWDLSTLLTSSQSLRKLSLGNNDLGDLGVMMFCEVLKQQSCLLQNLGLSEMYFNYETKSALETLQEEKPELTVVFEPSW

SMILES | IC50 [1] [nM] | IC50 [2] [nM] | IC50 [3] [nM]
CCN1CCC2CCN(c3ccc(-c4c(C)cc(C#N)cc4O)nn3)C2C1 (single isomer, unassigned) [Example 6B, 4-[6-[(3aR,7aS)-6-Ethyl-3,3a,4,5,7,7a-hexahydro-2H-pyrrolo[2,3-c]pyridin-1-yl]pyridazin-3-yl]-3-hydroxy-5-methyl-benzonitrile or 4-[6-[(3aS,7aR)-6-ethyl-3,3a,4,5,7,7a-hexahydro-2H-pyrrolo[2,3-c]pyridin-1-yl]pyridazin-3-yl]-3-hydroxy-5-methyl-benzonitrile] | 763 | – | –
CCN1CCC[C@@H](Nc2cc(C(F)(F)F)c(-c3ccc(C#N)cc3O)nn2)C1 [Example 3, 4-[6-[[(3R)-1-Ethyl-3-piperidyl]amino]-4-(trifluoromethyl)pyridazin-3-yl]-3-hydroxy-benzonitrile] | 73.1 | 51.8 | –
CCN1CCC2CCN(c3ccc(-c4c(C)cc(C#N)cc4O)nn3)C2C1 (single isomer, unassigned) [Example 6A, 4-[6-[(3aS,7aR)-6-Ethyl-3,3a,4,5,7,7a-hexahydro-2H-pyrrolo[2,3-c]pyridin-1-yl]pyridazin-3-yl]-3-hydroxy-5-methyl-benzonitrile or 4-[6-[(3aR,7aS)-6-ethyl-3,3a,4,5,7,7a-hexahydro-2H-pyrrolo[2,3-c]pyridin-1-yl]pyridazin-3-yl]-3-hydroxy-5-methyl-benzonitrile] | 3.9 | 14.9 | –
CCN1CCC[C@@H](Nc2cc(C)c(-c3ccc(C#N)cc3O)nn2)C1 [Example 1, 4-[6-[[(3R)-1-Ethyl-3-piperidyl]amino]-4-methyl-pyridazin-3-yl]-3-hydroxy-benzonitrile; formic acid] | 3.1 | 3.2 | > 20000
Cc1cc(N[C@H]2C[C@@](C)(O)C2)nnc1-c1ccc(C#N)cc1O [Example 4, 3-Hydroxy-4-[6-[(3-hydroxy-3-methyl-cyclobutyl)amino]-4-methyl-pyridazin-3-yl]benzonitrile] | 823 | – | –
